≈ marks a conversion by molar mass, not a printed value. Square brackets hold non-standard residues; d marks the D form. Peptide text beside a SMILES is read from it. N(1-naphthylmethyl)Gly = O=C(O)CNCc1cccc2ccccc12; Nphe = O=C(O)CNCc1ccccc1; NBuGly = CCCCNCC(=O)O
Columns and labels:
[1] = in vitro; type: cell-based, rat (Sprague–Dawley); details: Sprague-Dawley, rat
Method: (§1) The haemolytic activity of the 24 structurally related peptides (Table 1) was evaluated in erythrocytes from four different species (human, canine, bovine and rat) employing standard methodology. The subsequent release of haemoglobin was used to assess haemolytic activity as function of peptide and peptidomimetic concentration, with concentrations ranging from 0.15 to 150 µM (Presented in whole in Supplementary information Table S1–S4).
(§2) Human and rat (Sprague–Dawley) blood samples were purchased by Bioreclamation IVT (Westbury, NY, USA), collected in tubes containing heparin as anticoagulant and stored at 4 °C before use. Dog and bovine whole blood was collected from in-house animals at Zoetis Animal Health, Kalamazoo, Michigan and stored at 4 °C in tubes containing heparin as anticoagulant. 10 mL of each whole blood sample were centrifuged at 1,500 × g for 5 min and the resulting plasma fraction was removed from the samples. The pellets were washed with an equal volume (10 mL) of saline, mixing by inversion. The centrifuging and washing steps were repeated 5 times. After the last washing step, a volume of PBS was added, and the resulting samples were diluted 1:10 with PBS to yield an RBC concentration of ~ 5 × 10^8 RBC/mL. The assay was performed in a 384-well polypropylene microplate (Greiner 784201, Greiner Bio-One International, GMBH) through a Bravo Liquid Handling Platform 384 system (Agilent Technologies, Santa Clara, CA, USA) according to the previously published procedures. The compounds were tested in serial 1:1 dilutions in PBS, with final concentrations ranging from 150 to 1.2 µM. Melittin was used as reference lytic peptide. 1% TritonX100 and PBS were used as positive and negative (diluent) controls, respectively. The final concentrations were obtained by adding to the wells 7 µL of each solution, melittin or PBS, followed by 63 µL of RBCs to each well. The plate was sealed, shaken on a plate shaker for 20 s, incubated for one hour at 37 °C. Finally, it was centrifuged at 1,500 × g for 5 min at room temperature. 60 µL of supernatants were removed from all plate wells via a Bravo 384 robot and transferred to a flat-bottomed 384-well plate (Greiner UV-Star #7810801, Greiner Bio-One International, GMBH). The plate was centrifuged at 1,000 g for 1 min to remove air bubbles and optical density was measured at 405 nm using a plate reader. Percentage of haemolysis was calculated with the following equation: %haemolysis=(absorbance of test sample)-absorbance of diluent/absorbance of positive control-absorbance of diluent×100.

[2] = system: rat erythrocytes; assay: in vitro; type: cell-based, rat (Sprague–Dawley); details: for IC10 haemolysis: rat erythrocytes; for IC50: red cells of rat
Method: as §1, §2

[3] = system: HeLa cells; type: cell-based, human; details: 1 h
Method: (§3) An immortalised human keratinocyte (HaCaT) cell line (Gift from David Gram Naym at Bispebjerg Hospital, Denmark), a human liver cancer cell line (HepG2; ATCC HB-8065) and a human epithelial cervical cancer cell line (HeLa; ATCC CCL-2) were cultured to ∼90% confluence after 21–25 h of growth under standard conditions (5% CO2 at 37 °C). Cells were cultured in Dulbecco’s Modified Eagle’s Medium supplemented with 10% (v/v) fetal bovine serum (FBS). All culture media were supplemented with penicillin (100 IU/mL) and streptomycin (100 μg/mL). All cell media and supplements were obtained from Sigma-Aldrich (St. Louis, MO, United States). The 96-well plates were supplied by Corning Costar (Sigma-Aldrich, Brøndby, Denmark). Cell viability assessment was performed on cell monolayers grown to ∼90% confluence in 96-well plates by using the MTS/PMS assay as previously described. Briefly, the adhered cells were washed with PBS solution (37 °C) (ThermoFisher Scientific, Roskilde) and exposed for 1 h at 37 °C to 100 μL of peptides dissolved in the medium also used for culturing of the cell line (at concentrations in the range 0–1,000 μg/mL). The cells were subsequently washed twice with 37 °C PBS and then 100 μL of an MTS/PMS solution in media, consisting of 240 μg/mL MTS (Promega, Madison, WI, United States) and 2.4 mg/mL PMS (Promega, Madison, WI, United States), was added to the cells, which then were incubated for 1 h at 37 °C protected from light. A plate reader (SpectraMax i3X; Molecular devices, San Jose, CA) was used to measure the absorbance at 492 nm. The relative viability was calculated by using 0.2% (w/v) sodium dodecyl sulfate (SDS) as the positive control, while cells exposed to medium without test compound were used as the negative control.

[4] = system: HaCaT cells; type: cell-based, human; details: 1 h
Method: as §3

[5] = in vitro; type: cell-based, bovine; details: bovine
Method: as §1, §2

[6] = system: bovine erythrocytes; assay: in vitro; type: cell-based; details: bovine erythrocytes
Method: as §1, §2

[7] = system: Staphylococcus pseudintermedius; details: cited from earlier work; for S.p. MIC: Staphylococcus pseudintermedius, Table S5, in µM
[8] = in vitro; type: cell-based, dog; details: dog
Method: as §1, §2

[9] = system: canine erythrocytes; assay: in vitro; type: cell-based, dog; details: for IC10 haemolysis: canine erythrocytes; for IC50: red cells of canine
Method: as §1, §2

[10] = system: human erythrocytes; assay: in vitro; type: cell-based; details: for IC10 haemolysis: human erythrocytes; for IC50: red cells of human
Method: as §1, §2

[11] = in vitro; type: cell-based, human; details: human
Method: as §1, §2

[12] = system: Staphylococcus aureus; set-up: method as in PMID 30842436; details: cited from earlier work
[13] = system: Pseudomonas aeruginosa; set-up: method as in PMID 30842436; details: cited from earlier work
[14] = system: human erythrocytes; details: cited from earlier work

Row | Structure (SMILES) | IC50 [2] | IC50 [3] | IC50 [9] | IC50 [10] | hemolysis at 1 h, 150 µM [1] | IC10 haemolysis [2] | IC50 [4] | hemolysis at 1 h, 150 µM [5] | IC10 haemolysis [6] | S.p. MIC [7] | MIC against Staphylococcus pseudintermedius [7] | hemolysis at 1 h, 150 µM [8] | IC10 haemolysis [9] | IC10 haemolysis [10] | hemolysis at 1 h, 150 µM [11] | MIC against Staphylococcus aureus [12] | MIC against Pseudomonas aeruginosa [13] | Previously reported haemolytic activity against human erythrocytes (in words) [14] | also measured
1 | CC(C)C[C@H](NC(=O)[C@H](CCCCN)NC(=O)[C@@H](N)CCCCN)C(=O)N[C@@H](CCCCN)C(=O)N[C@@H](Cc1ccc2ccccc2c1)C(=O)N[C@@H](Cc1ccccc1)C(=O)N[C@@H](Cc1ccc2ccccc2c1)C(N)=O [Compound 1, Lys-Lys-Leu-Lys-(2-Nal)Ala-Phe-(2-Nal-)Ala] (HELM PEPTIDE1{K.K.L.K.[O=C([C@H](Cc1ccc2ccccc2c1)N[*:1])[*:2]].F.[O=C([C@H](Cc1ccc2ccccc2c1)N[*:1])[*:2]].[am]}$$$$V2.0) | > 150 µM | 462 µM | > 150 µM | > 150 µM | < 8% | > 150 µM | 654 µM | 32.5% | 45.1 µM | 7.6 µM | 8 µg/mL (≈ 7.57 µM) | 19.7% | 34.2 µM | > 150 µM | < 8% | 16 µg/mL (≈ 15.1 µM) | 32 µg/mL (≈ 30.3 µM) | – | –
2 | CC(C)C[C@H](NC(=O)[C@H](Cc1cccc2ccccc12)NC(=O)[C@H](Cc1ccccc1)NC(=O)[C@@H](N)Cc1cccc2ccccc12)C(=O)N[C@@H](CCCCN)C(=O)N[C@@H](CCCCN)C(=O)N[C@@H](CCCCN)C(N)=O [Compound 5, (1-Nal)Ala-Phe-(1-Nal)Ala-Leu-Lys-Lys-Lys] (HELM PEPTIDE1{[N[C@@H](Cc1cccc2ccccc12)C(=O)[*:2]].F.[O=C([C@H](Cc1cccc2ccccc12)N[*:1])[*:2]].L.K.K.K.[am]}$$$$V2.0) | > 150 µM | 1030 µM | > 150 µM | > 150 µM | 10.2% | 147.7 µM | 524 µM | < 8% | – | 15.1 µM | 16 µg/mL (≈ 15.1 µM) | 22.5% | 29.6 µM | 35.3 µM | 36% | 32 µg/mL (≈ 30.3 µM) | > 64 µg/mL | – | –
3 | CC(C)C[C@@H](NC(=O)[C@H](CCCCN)NC(=O)[C@@H](Cc1cccc2ccccc12)NC(=O)[C@@H](Cc1ccccc1)NC(=O)[C@H](N)Cc1cccc2ccccc12)C(=O)N[C@@H](CCCCN)C(=O)N[C@@H](CCCCN)C(N)=O [Compound 8, (1-Nal)Ala-Phe-(1-Nal)Ala-Lys-Leu-Lys-Lys] (HELM PEPTIDE1{[N[C@H](Cc1cccc2ccccc12)C(=O)[*:2]].[dF].[O=C([C@@H](Cc1cccc2ccccc12)N[*:1])[*:2]].K.[dL].K.K.[am]}$$$$V2.0) | > 150 µM | – | > 150 µM | > 150 µM | < 8% | > 150 µM | – | < 8% | – | – | 16 µg/mL (≈ 15.1 µM) | 25.8% | 66.0 µM | 57.0 µM | 34.3% | 32 to 64 µg/mL | > 64 µg/mL | no haemolytic activity | –

Continued, in another order:

Row | IC50 [2] | IC50 [3] | IC50 [9] | IC50 [10] | Structure (SMILES) | hemolysis at 1 h, 150 µM [1] | IC10 haemolysis [2] | IC50 [4] | hemolysis at 1 h, 150 µM [5] | IC10 haemolysis [6] | S.p. MIC [7] | MIC against Staphylococcus pseudintermedius [7] | hemolysis at 1 h, 150 µM [8] | IC10 haemolysis [9] | IC10 haemolysis [10] | hemolysis at 1 h, 150 µM [11] | MIC against Staphylococcus aureus [12] | MIC against Pseudomonas aeruginosa [13] | Previously reported haemolytic activity against human erythrocytes (in words) [14] | also measured
4 | > 150 µM | – | > 150 µM | > 150 µM | CC(C)C[C@@H](NC(=O)[C@@H](Cc1cccc2ccccc12)NC(=O)[C@@H](Cc1ccccc1)NC(=O)[C@H](N)Cc1cccc2ccccc12)C(=O)N[C@@H](CCCCN)C(=O)N[C@@H](CCCCN)C(=O)N[C@@H](CCCCN)C(N)=O [Compound 9, (1-Nal)Ala-Phe-(1-Nal)Ala-Leu-Lys-Lys-Lys] (HELM PEPTIDE1{[N[C@H](Cc1cccc2ccccc12)C(=O)[*:2]].[dF].[O=C([C@@H](Cc1cccc2ccccc12)N[*:1])[*:2]].[dL].K.K.K.[am]}$$$$V2.0) | < 8% | > 150 µM | – | < 8% | – | – | 16 µg/mL (≈ 15.1 µM) | 25.5% | 65.0 µM | 104.1 µM | 30.8% | 32 µg/mL (≈ 30.3 µM) | 32 µg/mL (≈ 30.3 µM) | no haemolytic activity | –
5 | 47.6 µM | 394 µM | 65.7 µM | 41.7 µM | CCCCN(CC(=O)N(CC(=O)N(CC(=O)N(CC(N)=O)Cc1cccc2ccccc12)Cc1ccccc1)Cc1cccc2ccccc12)C(=O)[C@H](CCCCN)NC(=O)[C@H](CCCCN)NC(=O)[C@@H](N)CCCCN [Compound 15, Lys-Lys-Lys-(N-Bu)Gly-(N1-Nal)Gly-(N-Phe)Gly-(N1-Nal)Gly] (H-KKK[NBuGly][N(1-naphthylmethyl)Gly][Nphe][N(1-naphthylmethyl)Gly]-NH2) | 99.5% | 35.61 µM | 297 µM | < 8% | – | 3.8 µM | 4 µg/mL (≈ 3.79 µM) | 87.1% | 11.6 µM | 8.4 µM | 94.2% | 16 µg/mL (≈ 15.1 µM) | 32 µg/mL (≈ 30.3 µM) | – | Haemolysis at 80 µM (in words) [2]: near total haemolysis; Haemolysis at 80 µM (in words) [9]: near total haemolysis; Haemolysis at 80 µM (in words) [10]: near total haemolysis
6 | > 150 µM | – | > 150 µM | > 150 µM | CC(C)C[C@@H](NC(=O)[C@H](CCCCN)NC(=O)[C@H](CCCCN)NC(=O)[C@@H](N)CCCCN)C(=O)N[C@H](Cc1ccc2ccccc2c1)C(=O)N[C@H](Cc1ccc(O)cc1)C(=O)N[C@H](Cc1ccc2ccccc2c1)C(N)=O [Compound 24, Lys-Lys-Lys-Leu-(2-Nal)Ala-Tyr-(2-Nal)Ala] (HELM PEPTIDE1{K.K.K.[dL].[O=C([C@@H](Cc1ccc2ccccc2c1)N[*:1])[*:2]].[dY].[O=C([C@@H](Cc1ccc2ccccc2c1)N[*:1])[*:2]].[am]}$$$$V2.0) | < 8% | > 150 µM | – | 29.8% | 89.6 µM | – | 4 to 8 µg/mL | 38.5% | 45.0 µM | 76.72 µM | 23.4% | 16 to 32 µg/mL | 32 µg/mL (≈ 29.8 µM) | – | –

From publication PMC7414031, “Correlation between hemolytic activity, cytotoxicity and systemic in vivo toxicity of synthetic antimicrobial peptides” (Scientific Reports, 2020)
